Earlier results, collected in article PMC9796293 (British Journal of Clinical Pharmacology, 2022).

System: monocytes

monocytopaenia (clinical ref 20): not observed
Compound: O=C(CCCCCCC(=O)Nc1ccc(CN[C@H](C(=O)OC2CCCC2)c2ccccc2)cc1)NO [tefinostat]
lowest dose that induced monocyte histone acetylation (Phase I study in cancer patients ref 20): 40 mg
